# Measurements reported in ChEMBL document CHEMBL1681651, “A broad spectrum anticancer nucleoside with selective toxicity against human colon cells in vitro” (2011).
# What was measured:
# Assay type in all cases: functional
# HCT-15 [1] = assay: Growth inhibition of human HCT15 cells assessed as cell growth at 1 uM after 48 hrs by SRB assay; conditions: HCT-15, 48 h, read-out: Activity
# SK-MEL-2 [2] = assay: Growth inhibition of human SK-MEL-2 cells assessed as cell growth at 100 uM after 48 hrs by SRB assay; conditions: SK-MEL-2, 48 h, read-out: Activity
# MCF7 = assay: Growth inhibition of human MCF7 cells assessed as cell growth at 10 uM after 48 hrs by SRB assay; conditions: MCF7, 48 h, read-out: Activity
# SN12C = assay: Growth inhibition of human SN12C cells assessed as cell growth at 0.1 uM after 48 hrs by SRB assay; conditions: read-out: Activity
# HCT-15 [3] = assay: Growth inhibition of human HCT15 cells assessed as cell growth at 100 uM after 48 hrs by SRB assay; conditions: HCT-15, 48 h, read-out: Activity
# UACC-62 = assay: Growth inhibition of human UACC62 cells assessed as cell growth at 100 uM after 48 hrs by SRB assay; conditions: UACC-62, 48 h, read-out: Activity
# UO-31 = assay: Growth inhibition of human UO31 cells assessed as cell growth at 1 uM after 48 hrs by SRB assay; conditions: UO-31, 48 h, read-out: Activity
# SK-MEL-2 [4] = assay: Growth inhibition of human SK-MEL-2 cells assessed as cell growth at 1 mM after 48 hrs by SRB assay; conditions: SK-MEL-2, 48 h, read-out: Activity
# HCC 2998 [5] = assay: Growth inhibition of human HCC2998 cells after 48 hrs by […] growth inhibition assay; conditions: HCC 2998, 48 h
# PC-3 = assay: Growth inhibition of human PC3 cells after 48 hrs by […] growth inhibition assay; conditions: PC-3, 48 h
# OVCAR-3 [6] = assay: Growth inhibition of human OVCAR3 cells assessed as cell growth at 100 uM after 48 hrs by SRB assay; conditions: OVCAR-3, 48 h, read-out: Activity
# HCC 2998 [7] = assay: Growth inhibition of human HCC2998 cells assessed as cell growth at 1 mM after 48 hrs by SRB assay; conditions: HCC 2998, 48 h, read-out: Activity
# EKVX [8] = assay: Growth inhibition of human EKVX cells after 48 hrs by […] growth inhibition assay
# Malme-3M = assay: Growth inhibition of human MALME-3M cells assessed as cell growth at 100 uM after 48 hrs by SRB assay; conditions: read-out: Activity
# SF-295 = assay: Growth inhibition of human SF295 cells assessed as cell growth at 100 uM after 48 hrs by SRB assay; conditions: SF-295, 48 h, read-out: Activity
# HOP-62 = assay: Growth inhibition of human HOP62 cells assessed as cell growth at 1 mM after 48 hrs by SRB assay; conditions: HOP-62, 48 h, read-out: Activity
# CCRF-CEM = assay: Growth inhibition of human CCRF-CEM cells after 48 hrs by […] growth inhibition assay
# SF-539 = assay: Growth inhibition of human SF539 cells assessed as cell growth at 10 uM after 48 hrs by SRB assay; conditions: SF-539, 48 h, read-out: Activity
# NCI-H23 = assay: Growth inhibition of human NCI-H23 cells assessed as cell growth at 1 uM after 48 hrs by SRB assay; conditions: NCI-H23, 48 h, read-out: Activity
# [9] = Growth inhibition of human […] cells assessed as cell growth at 0.1 uM after 48 hrs by SRB assay; conditions: read-out: Activity
# OVCAR-8 [10] = assay: Growth inhibition of human OVCAR8 cells assessed as cell growth at 100 uM after 48 hrs by SRB assay; conditions: OVCAR-8, 48 h, read-out: Activity
# DU-145 [11] = assay: Growth inhibition of human DU145 cells assessed as cell growth at 10 uM after 48 hrs by SRB assay; conditions: DU-145, 48 h, read-out: Activity
# A549 = assay: Growth inhibition of human A549 cells assessed as cell growth at 1 uM after 48 hrs by SRB assay; conditions: A549, 48 h, read-out: Activity
# HCT-116 = assay: Growth inhibition of human HCT116 cells assessed as cell growth at 10 uM after 48 hrs by SRB assay; conditions: HCT-116, 48 h, read-out: Activity
# OVCAR-3 [12] = assay: Growth inhibition of human OVCAR3 cells assessed as cell growth at 0.1 uM after 48 hrs by SRB assay; conditions: OVCAR-3, 48 h, read-out: Activity
# CAKI-1 = assay: Growth inhibition of human Caki1 cells assessed as cell growth at 10 uM after 48 hrs by SRB assay; conditions: CAKI-1, 48 h, read-out: Activity
# EKVX [13] = assay: Growth inhibition of human EKVX cells assessed as cell growth at 1 uM after 48 hrs by SRB assay; conditions: read-out: Activity
# EKVX [14] = assay: Growth inhibition of human EKVX cells assessed as cell growth at 0.1 uM after 48 hrs by SRB assay; conditions: read-out: Activity
# DU-145 [15] = assay: Growth inhibition of human DU145 cells assessed as cell growth at 1 mM after 48 hrs by SRB assay; conditions: DU-145, 48 h, read-out: Activity
# MDA-MB-435 = assay: Growth inhibition of human MDA-MB-435 cells after 48 hrs by SRB assay; conditions: MDA-MB-435, 48 h
# COLO 205 = assay: Growth inhibition of human COLO205 cells assessed as cell growth at 10 uM after 48 hrs by SRB assay; conditions: COLO 205, 48 h, read-out: Activity
# HOP-92 = assay: Growth inhibition of human HOP92 cells assessed as cell growth at 1 uM after 48 hrs by SRB assay; conditions: HOP-92, 48 h, read-out: Activity
# OVCAR-8 [16] = assay: Growth inhibition of human OVCAR8 cells assessed as cell growth at 0.1 uM after 48 hrs by SRB assay; conditions: OVCAR-8, 48 h, read-out: Activity
# NCI-H226 = assay: Growth inhibition of human NCI-H226 cells after 48 hrs by […] growth inhibition assay; conditions: NCI-H226, 48 h
# [17] = read-out: LC50 (the source's name)
# [18] = read-out: pLC50 (the source's name) (converted)
structure (smiles),measurement,setting,value
CNC(=O)NC[C@H]1O[C@@H](n2cnc3c(NC(=O)Nc4ccccc4)ncnc32)[C@H](O[Si](C)(C)C(C)(C)C)[C@@H]1O[Si](C)(C)C(C)(C)C,growth at 1 µM,HCT-15 [1],106%
same,growth at 100 µM,SK-MEL-2 [2],-36%
same,growth at 10 µM,MCF7,83%
same,growth at 0.1 µM,SN12C,100%
same,growth at 100 µM,HCT-15 [3],11%
same,growth at 100 µM,UACC-62,23%
same,growth at 1 µM,UO-31,97%
same,growth at 1000 µM,SK-MEL-2 [4],-67%
same,GI50,HCC 2998 [5]; read-out: GI50,2.02 µM
same,CC50,HCC 2998 [5]; [17],6.99 µM
same,TGI,HCC 2998 [5]; read-out: TGI,3.75 µM
same,GI50,HCC 2998 [5]; read-out: pGI50 (converted),2 µM
same,CC50,HCC 2998 [5]; [18],6.92 µM
same,TGI,HCC 2998 [5]; read-out: pTGI (converted),3.72 µM
same,GI50,PC-3; read-out: GI50,2.69 µM
same,CC50,PC-3; [17],> 100 µM
same,TGI,PC-3; read-out: TGI,> 1 µM
same,GI50,PC-3; read-out: pGI50 (converted),2.69 µM
same,CC50,PC-3; [18],> 100 µM
same,TGI,PC-3; read-out: pTGI (converted),> 100 µM
same,growth at 100 µM,OVCAR-3 [6],-39%
same,growth at 1000 µM,HCC 2998 [7],-91%
same,GI50,EKVX [8]; read-out: GI50,3.7 µM
same,CC50,EKVX [8]; [17],> 100 µM
same,TGI,EKVX [8]; read-out: TGI,30.6 µM
same,GI50,EKVX [8]; read-out: pGI50 (converted),3.72 µM
same,CC50,EKVX [8]; [18],> 100 µM
same,TGI,EKVX [8]; read-out: pTGI (converted),30.9 µM
same,growth at 100 µM,Malme-3M,-1%
same,growth at 100 µM,SF-295,7%
same,growth at 1000 µM,HOP-62,-86%
same,GI50,CCRF-CEM; read-out: GI50,3.59 µM
same,"LC50 (lethal concentration, 50% net cell kill)",CCRF-CEM; read-out: LC50,> 100 µM
same,TGI,CCRF-CEM; read-out: TGI,> 100 µM
same,GI50,CCRF-CEM; read-out: pGI50 (converted),3.63 µM
same,"LC50 (lethal concentration, 50% net cell kill)",CCRF-CEM; read-out: pLC50 (converted),> 100 µM
same,TGI,CCRF-CEM; read-out: pTGI (converted),> 100 µM
same,growth at 10 µM,SF-539,91%
same,growth at 1 µM,NCI-H23,106%
same,growth at 0.1 µM,[9],102%
same,growth at 100 µM,OVCAR-8 [10],13%
same,growth at 10 µM,DU-145 [11],109%
same,growth at 1 µM,A549,98%
same,growth at 10 µM,HCT-116,102%
same,growth at 0.1 µM,OVCAR-3 [12],111%
same,growth at 10 µM,CAKI-1,96%
same,growth at 1 µM,EKVX [13],111%
same,growth at 0.1 µM,EKVX [14],105%
same,growth at 1000 µM,DU-145 [15],-89%
same,GI50,MDA-MB-435; read-out: GI50,3.41 µM
same,LC50,MDA-MB-435; read-out: LC50,> 100 µM
same,TGI,MDA-MB-435; read-out: TGI,29.1 µM
same,GI50,MDA-MB-435; read-out: pGI50 (converted),3.39 µM
same,LC50,MDA-MB-435; read-out: pLC50 (converted),> 100 µM
same,TGI,MDA-MB-435; read-out: pTGI (converted),28.8 µM
same,growth at 10 µM,COLO 205,105%
same,growth at 1 µM,HOP-92,80%
same,growth at 0.1 µM,OVCAR-8 [16],108%
same,GI50,NCI-H226; read-out: GI50,3.1 µM
same,CC50,NCI-H226; [17],> 100 µM
same,TGI,NCI-H226; read-out: TGI,8.63 µM
same,GI50,NCI-H226; read-out: pGI50 (converted),3.09 µM
same,CC50,NCI-H226; [18],> 100 µM
same,TGI,NCI-H226; read-out: pTGI (converted),8.71 µM
